Assay results taken from patent US20210352905A1, “COMPOSITIONS AND METHODS TO DISINFECT, TREAT AND PREVENT MICROBIAL INFECTIONS” (WIAB WATER INNOVATION AB, priority 2020, published 2021).

What was measured:
S. aureus biofilms = details: 1% acetic acid alone, FIG. 2
pre-formed biofilm = details: Halstead et al, PLOS ONE (2015); cited from earlier work
avian influenza virus = details: similar formulations, in vitro; cited from earlier work
[1] = cited from earlier work
human rhinovirus (HRV) = details: low concentration hypochlorous acid nasal irrigation solution, in vitro, nasal epithelial cells; cited from earlier work

CC(=O)O [acetic acid]
effect on the biofilm (S. aureus biofilms): only minor effect
concentrations of acetic acid that eradicated a pre-formed biofilm (pre-formed biofilm): 0.10% to 2.5

OCl [hypochlorous acid]
effects against avian influenza virus (avian influenza virus): good effects
pKa [1]: about 7
virus-killing effect (human rhinovirus (HRV)): significant virus-killing effect
